Test results published in ChEMBL document CHEMBL4813944 (Eur J Med Chem, 2021).
Calls of active or inactive are those of the source. No cut-off for these calls is given here.

What was measured:
[1] = Cytotoxicity against human SH-SY5Y cells assessed as cell viability at 0.1 uM measured after 24 hrs by calcein-AM staining based fluorescence analysis; conditions: read-out: Activity
[2] = Cytotoxicity against human SH-SY5Y cells assessed as cell viability at 1 uM measured after 24 hrs by calcein-AM staining based fluorescence analysis; conditions: read-out: Activity
[3] = Cytotoxicity against human SH-SY5Y cells assessed as cell viability at 10 uM measured after 24 hrs by calcein-AM staining based fluorescence analysis; conditions: read-out: Activity
SH-SY5Y [4] = test: Neuroprotective activity against salsolinol-induced neurotoxicity in human SH-SY5Y cells assessed as cell viability at 1 uM measured after 24 hrs by calcein-AM staining based fluorescence analysis (reference value: 70.49 +/-0.51%); format: functional; conditions: read-out: Activity
SH-SY5Y [5] = test: Neuroprotective activity against salsolinol-induced neurotoxicity in human SH-SY5Y cells assessed as reduction in cell death at 0.1 to 10 uM measured after 24 hrs by PI staining based analysis; format: functional; conditions: dose 0.1-10 µM
SH-SY5Y [6] = test: Neuroprotective activity against glutamate-induced neurotoxicity in human SH-SY5Y cells assessed as cell death at 10 uM measured after 24 hrs by PI staining based assay (reference value: 100%); format: functional
SH-SY5Y [7] = test: Inhibition of glutamate-induced oxidative stress in human SH-SY5Y cells assessed as superoxide radical formation at 10 uM measured after 4 hrs by DHE staining based fluorescence spectrophotometry (reference value: 100%); format: functional; set-up: scale not given: the % may be the effect or the level left
SH-SY5Y [8] = test: Inhibition of glutamate-induced apoptosis in human SH-SY5Y cells assessed as caspase 3/7 activity at 10 uM incubated for 1 hr using Ac-DEVD-AMC as substrate by fluorescence analysis (reference value: 100%); format: functional; set-up: scale not given: the % may be the effect or the level left
SH-SY5Y [9] = test: Inhibition of glutamate-induced oxidative stress in human SH-SY5Y cells assessed as reduction in superoxide radical formation at 10 uM measured after 4 hrs by DHE staining based fluorescence microscopy; format: functional, cell-based
SH-SY5Y [10] = test: Neuroprotective activity against salsolinol-induced neurotoxicity in human SH-SY5Y cells assessed as reduction in cell death at 0.1 to 1 uM measured after 24 hrs by PI staining based analysis; format: functional; conditions: dose 0.1-1 µM

Compound | viability at 24 h, 0.1 µM [1] | viability at 24 h, 1 µM [2] | viability at 24 h, 10 µM [3] | viability at 1 µM (SH-SY5Y [4]) | Activity (SH-SY5Y [5]) | Activity (SH-SY5Y [6]) | Activity (SH-SY5Y [7]) | Activity (SH-SY5Y [8]) | inhibition (SH-SY5Y [9]) | Activity (SH-SY5Y [10])
COC(=O)[C@]12CCC(C)(C)C[C@@H]1[C@H]1C=C[C@@H]3[C@@]4(C)CC(SC#N)C(=O)C(C)(C)[C@@H]4CC[C@@]3(C)[C@]1(C)CC2 (stereo partly drawn) | 100% | 107% | 99.2% |  |  |  |  |  |  | 
C=C(Cn1cc(-c2cccnc2)nn1)[C@@H]1CC[C@]2(C(=O)O)CC[C@]3(C)[C@H](CC[C@@H]4[C@@]5(C)CC[C@H](O)C(C)(C)[C@@H]5CC[C@]43C)[C@@H]12 | 103% | 116% | 133% | 81.7% | inactive |  |  |  |  | 
C=C(C(=O)O)[C@@H]1CC[C@]2(COC(C)=O)CC[C@]3(C)[C@H](CC[C@@H]4[C@@]5(C)CC[C@H](OC(C)=O)C(C)(C)[C@@H]5CC[C@]43C)[C@@H]12 | 102% | 102% | 11.6% |  |  |  |  |  |  | 
CC(=O)N(O)CCCCCNC(=O)CCC(=O)N(O)CCCCCNC(=O)CCC(=O)N(O)CCCCCN [DEFEROXAMINE] |  |  |  |  |  | 79.5% | 87.2% | 77.4% | inactive | 
C=C(C)[C@@H]1CC[C@]2(C(=O)O)CC[C@]3(C)[C@H](C=C[C@@H]4[C@@]5(C)Cc6sc(N7CCOCC7)nc6C(C)(C)[C@@H]5CC[C@]43C)[C@@H]12 | 91.3% | 90% | 87% |  |  |  |  |  |  | 
C=C(Cn1cc(-c2cccnc2)nn1)[C@@H]1CC[C@]2(C(=O)O)CC[C@]3(C)[C@H](CC[C@@H]4[C@@]5(C)CC[C@H](OC(C)=O)C(C)(C)[C@@H]5CC[C@]43C)[C@@H]12 | 106% | 124% | 57.6% | 84.3% |  |  |  |  |  | inactive
